In ChEMBL document CHEMBL1201862, “PubChem BioAssay data set” (2004):
Calls of active or inactive are those of the source.

Key:
[1] = DRD fibroblast viability loss – cell-based, non-viral oncogenic, luminescence, dose response (AID 1934); assay type: functional; settings: Homo sapiens
[2] = tested on: BJ; test: BJ-TERT-LT-ST fibroblast viability loss – cell-based, RAS-independent, luminescence, dose response (AID 1935); assay type: functional; settings: Homo sapiens;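 note: BJ fibroblasts immortalized with TERT plus LT and ST oncogenes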
[3] = tested on: BJ; test: BJ-TERT fibroblast viability loss – cell-based, RAS-independent, luminescence, dose response (AID 1933); assay type: functional; settings: Homo sapiens
[4] = tested on: BJ; test: cells; assay type: functional, cell-based; settings: Homo sapiens
[5] = target: T1, Fatty acid synthase (Homo sapiens, UniProt P49327); test: inhibition of human FAS-TE enzyme activity – biochemical, kinetic fluorescence intensity, dose response (AID 624326); assay type: functional;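 note: rate of fluorescence rise from hydrolysis of a fluorogenic O-methyl fluorescein ester substrate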
[6] = NIH3T3 cell viability loss – ATP luminescence, mouse fibroblasts, counter-screen, dose response (AID 2010); assay type: functional, cell-based;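 note: cells exposed to compound for about 90 hours before reading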
[7] = target: T1, Fatty acid synthase; test: inhibition of human FAS-TE enzyme activity – biochemical, endpoint fluorescence intensity, uHTS hits, dose response (AID 624327); assay type: functional;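 note: fluorescence from hydrolysis of an O-methyl fluorescein acyl ester substrate by the enzyme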
[8] = Trypanosoma cruzi growth suppression in host cells – NIH3T3 host cells, beta-gal luminescence, confirmation (AID 2044); assay type: functional, cell-based;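 note: intracellular parasites grown in NIH/3T3 mouse fibroblasts as host cells; luminescent beta-galactosidase reporter signal from transgenic T. cruzi replicating inside host cells; inhibitors lower the luminescence signal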
[9] = target: Genome polyprotein (dengue virus type 2, UniProt P29990); test: flavivirus cap methylation enzyme inhibition – biochemical, confirmation dose response, primary screen (AID 588689); assay type: functional
[10] = target: T2, Replicative DNA helicase DnaB (Mycobacterium tuberculosis, UniProt P9WMR3); test: DnaB intein splicing inhibitors, dose response, biochemical, cell-free fluorescence (AID 449749); assay type: functional
T2 sequence (P9WMR3 whole entry): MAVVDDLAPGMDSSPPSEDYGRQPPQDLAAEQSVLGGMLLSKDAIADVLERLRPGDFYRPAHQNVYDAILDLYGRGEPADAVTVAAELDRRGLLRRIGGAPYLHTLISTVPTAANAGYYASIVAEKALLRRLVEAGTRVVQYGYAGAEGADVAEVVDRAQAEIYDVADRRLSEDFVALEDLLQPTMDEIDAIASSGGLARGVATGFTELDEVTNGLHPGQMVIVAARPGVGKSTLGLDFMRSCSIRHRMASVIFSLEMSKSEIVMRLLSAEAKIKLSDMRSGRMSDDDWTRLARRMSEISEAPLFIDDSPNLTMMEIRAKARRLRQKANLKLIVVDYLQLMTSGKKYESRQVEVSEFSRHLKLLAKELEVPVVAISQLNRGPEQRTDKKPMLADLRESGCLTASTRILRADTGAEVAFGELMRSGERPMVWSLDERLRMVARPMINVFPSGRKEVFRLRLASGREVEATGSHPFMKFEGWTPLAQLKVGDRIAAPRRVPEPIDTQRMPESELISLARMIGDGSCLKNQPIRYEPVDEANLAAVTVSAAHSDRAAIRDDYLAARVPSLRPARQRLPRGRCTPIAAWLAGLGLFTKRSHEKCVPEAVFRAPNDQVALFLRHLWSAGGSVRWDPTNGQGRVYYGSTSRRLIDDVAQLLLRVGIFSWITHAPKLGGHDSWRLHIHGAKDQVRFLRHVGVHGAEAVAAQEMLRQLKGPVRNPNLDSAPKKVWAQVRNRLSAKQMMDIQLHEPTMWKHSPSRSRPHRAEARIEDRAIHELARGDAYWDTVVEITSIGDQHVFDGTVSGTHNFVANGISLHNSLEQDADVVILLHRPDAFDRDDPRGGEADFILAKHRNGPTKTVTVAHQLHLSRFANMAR

[11] = target: T3, Protein RecA (Mycobacterium tuberculosis, UniProt P9WHJ3); test: Fluorescence Cell-Free Homogeneous Dose Retest to Identify Inhibitors of RecA-Intein Splicing Activity. [Related pubchem assays (depositor defined):AID2097, AID2223, AID489010, AID492950]; assay type: functional
T3 sequence (P9WHJ3 whole entry): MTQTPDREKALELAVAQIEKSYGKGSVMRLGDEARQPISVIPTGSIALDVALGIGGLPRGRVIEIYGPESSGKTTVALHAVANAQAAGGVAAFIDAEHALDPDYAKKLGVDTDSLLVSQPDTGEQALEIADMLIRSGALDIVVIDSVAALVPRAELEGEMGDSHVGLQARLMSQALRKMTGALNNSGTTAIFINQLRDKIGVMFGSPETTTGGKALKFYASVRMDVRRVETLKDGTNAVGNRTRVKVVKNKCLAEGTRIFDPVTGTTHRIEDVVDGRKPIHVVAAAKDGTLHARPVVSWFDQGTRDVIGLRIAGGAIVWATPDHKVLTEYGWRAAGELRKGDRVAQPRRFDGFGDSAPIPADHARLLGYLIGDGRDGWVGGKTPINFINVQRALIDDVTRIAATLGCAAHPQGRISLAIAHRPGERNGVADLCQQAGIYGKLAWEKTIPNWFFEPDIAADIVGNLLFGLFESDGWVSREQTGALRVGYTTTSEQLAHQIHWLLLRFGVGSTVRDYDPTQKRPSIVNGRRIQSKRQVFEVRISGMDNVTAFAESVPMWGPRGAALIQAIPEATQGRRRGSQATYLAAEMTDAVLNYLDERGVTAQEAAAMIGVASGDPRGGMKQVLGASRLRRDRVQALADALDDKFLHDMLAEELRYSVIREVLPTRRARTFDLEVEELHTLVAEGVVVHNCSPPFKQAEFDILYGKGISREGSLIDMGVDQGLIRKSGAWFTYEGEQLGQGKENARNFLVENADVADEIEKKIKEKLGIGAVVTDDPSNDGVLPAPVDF

[12] = blockers of HIV-1 ZM109 envelope-driven cell-cell fusion – HeLa effector, CEM target cells, luciferase, cherry-pick, dose response (AID 652058); assay type: functional, cell-based;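 note: luciferase signal from HIV-1 Env mediated cell-cell fusion of effector and target cells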
[13] = off-target signal loss in HeLa-CEM21 co-culture – HeLa F-luc CTL cells, cherry-picked, counter-screen for HIV-1 Env fusion inhibitor project, dose response (AID 652040); assay type: functional, cell-based;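 note: potency for signal decrease marking cytotoxic or nonspecific inhibition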
[14] = HIV-1 AD8 envelope cell-cell fusion blockers – cherry-pick, dose response (AID 652062); assay type: functional, cell-based;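 note: luciferase signal from cell-cell fusion driven by HIV-1 clade B AD8 Env; potency is for inhibitors of fusion seen as a drop in luminescence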
[15] = blockers of HIV-1 envelope-mediated cell-cell fusion – cherry-pick, dose response (AID 652057); assay type: functional, cell-based
[16] = cells; assay type: functional, cell-based
[17] = cells; assay type: functional, cell-based; remark: listed apart in the source
[18] = target: Induced myeloid leukemia cell differentiation protein Mcl-1 (Homo sapiens, UniProt Q07820); assay type: functional
[19] = target: T4, Heat shock factor protein 1 (Mus musculus, UniProt P38532); test: decrease of HSF1-responsive luciferase luminescence – cell-based, NIH3T3, dose retest, confirmation (AID 2382); assay type: functional;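 note: NIH3T3 fibroblasts with HSF1-driven luciferase reporter stressed by proteasome inhibitor MG132; luminescence from HSF1-driven luciferase expression after 8 hours of MG132 stress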
T4 sequence (P38532 whole entry): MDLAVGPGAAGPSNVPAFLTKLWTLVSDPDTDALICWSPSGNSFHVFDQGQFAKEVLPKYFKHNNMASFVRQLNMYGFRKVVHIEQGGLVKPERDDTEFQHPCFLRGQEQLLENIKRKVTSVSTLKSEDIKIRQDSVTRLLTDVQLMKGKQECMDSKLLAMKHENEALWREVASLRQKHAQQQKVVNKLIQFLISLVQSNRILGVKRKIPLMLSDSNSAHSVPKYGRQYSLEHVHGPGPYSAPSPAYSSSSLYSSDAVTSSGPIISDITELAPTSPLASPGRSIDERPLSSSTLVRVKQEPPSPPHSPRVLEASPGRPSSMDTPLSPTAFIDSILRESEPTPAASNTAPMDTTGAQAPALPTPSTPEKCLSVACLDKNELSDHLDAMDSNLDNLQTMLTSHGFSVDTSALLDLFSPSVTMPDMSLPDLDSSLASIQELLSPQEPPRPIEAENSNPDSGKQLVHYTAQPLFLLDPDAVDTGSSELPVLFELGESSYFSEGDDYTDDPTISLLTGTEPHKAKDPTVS

[20] = target: FAD-linked sulfhydryl oxidase ALR (Homo sapiens, UniProt P55789); test: ALR-catalysed DTT oxidation blockers – biochemical, H2O2 detection, luminescence, cherry-pick, dose response (AID 493248)
FAD-linked sulfhydryl oxidase ALR, sequence (P55789 whole entry): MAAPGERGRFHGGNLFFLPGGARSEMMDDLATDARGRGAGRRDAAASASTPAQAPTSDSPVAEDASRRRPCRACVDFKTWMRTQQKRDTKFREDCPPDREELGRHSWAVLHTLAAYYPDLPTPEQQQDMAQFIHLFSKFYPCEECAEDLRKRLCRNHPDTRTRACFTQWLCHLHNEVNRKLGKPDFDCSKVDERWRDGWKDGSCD

T1 sequence (P49327 whole entry): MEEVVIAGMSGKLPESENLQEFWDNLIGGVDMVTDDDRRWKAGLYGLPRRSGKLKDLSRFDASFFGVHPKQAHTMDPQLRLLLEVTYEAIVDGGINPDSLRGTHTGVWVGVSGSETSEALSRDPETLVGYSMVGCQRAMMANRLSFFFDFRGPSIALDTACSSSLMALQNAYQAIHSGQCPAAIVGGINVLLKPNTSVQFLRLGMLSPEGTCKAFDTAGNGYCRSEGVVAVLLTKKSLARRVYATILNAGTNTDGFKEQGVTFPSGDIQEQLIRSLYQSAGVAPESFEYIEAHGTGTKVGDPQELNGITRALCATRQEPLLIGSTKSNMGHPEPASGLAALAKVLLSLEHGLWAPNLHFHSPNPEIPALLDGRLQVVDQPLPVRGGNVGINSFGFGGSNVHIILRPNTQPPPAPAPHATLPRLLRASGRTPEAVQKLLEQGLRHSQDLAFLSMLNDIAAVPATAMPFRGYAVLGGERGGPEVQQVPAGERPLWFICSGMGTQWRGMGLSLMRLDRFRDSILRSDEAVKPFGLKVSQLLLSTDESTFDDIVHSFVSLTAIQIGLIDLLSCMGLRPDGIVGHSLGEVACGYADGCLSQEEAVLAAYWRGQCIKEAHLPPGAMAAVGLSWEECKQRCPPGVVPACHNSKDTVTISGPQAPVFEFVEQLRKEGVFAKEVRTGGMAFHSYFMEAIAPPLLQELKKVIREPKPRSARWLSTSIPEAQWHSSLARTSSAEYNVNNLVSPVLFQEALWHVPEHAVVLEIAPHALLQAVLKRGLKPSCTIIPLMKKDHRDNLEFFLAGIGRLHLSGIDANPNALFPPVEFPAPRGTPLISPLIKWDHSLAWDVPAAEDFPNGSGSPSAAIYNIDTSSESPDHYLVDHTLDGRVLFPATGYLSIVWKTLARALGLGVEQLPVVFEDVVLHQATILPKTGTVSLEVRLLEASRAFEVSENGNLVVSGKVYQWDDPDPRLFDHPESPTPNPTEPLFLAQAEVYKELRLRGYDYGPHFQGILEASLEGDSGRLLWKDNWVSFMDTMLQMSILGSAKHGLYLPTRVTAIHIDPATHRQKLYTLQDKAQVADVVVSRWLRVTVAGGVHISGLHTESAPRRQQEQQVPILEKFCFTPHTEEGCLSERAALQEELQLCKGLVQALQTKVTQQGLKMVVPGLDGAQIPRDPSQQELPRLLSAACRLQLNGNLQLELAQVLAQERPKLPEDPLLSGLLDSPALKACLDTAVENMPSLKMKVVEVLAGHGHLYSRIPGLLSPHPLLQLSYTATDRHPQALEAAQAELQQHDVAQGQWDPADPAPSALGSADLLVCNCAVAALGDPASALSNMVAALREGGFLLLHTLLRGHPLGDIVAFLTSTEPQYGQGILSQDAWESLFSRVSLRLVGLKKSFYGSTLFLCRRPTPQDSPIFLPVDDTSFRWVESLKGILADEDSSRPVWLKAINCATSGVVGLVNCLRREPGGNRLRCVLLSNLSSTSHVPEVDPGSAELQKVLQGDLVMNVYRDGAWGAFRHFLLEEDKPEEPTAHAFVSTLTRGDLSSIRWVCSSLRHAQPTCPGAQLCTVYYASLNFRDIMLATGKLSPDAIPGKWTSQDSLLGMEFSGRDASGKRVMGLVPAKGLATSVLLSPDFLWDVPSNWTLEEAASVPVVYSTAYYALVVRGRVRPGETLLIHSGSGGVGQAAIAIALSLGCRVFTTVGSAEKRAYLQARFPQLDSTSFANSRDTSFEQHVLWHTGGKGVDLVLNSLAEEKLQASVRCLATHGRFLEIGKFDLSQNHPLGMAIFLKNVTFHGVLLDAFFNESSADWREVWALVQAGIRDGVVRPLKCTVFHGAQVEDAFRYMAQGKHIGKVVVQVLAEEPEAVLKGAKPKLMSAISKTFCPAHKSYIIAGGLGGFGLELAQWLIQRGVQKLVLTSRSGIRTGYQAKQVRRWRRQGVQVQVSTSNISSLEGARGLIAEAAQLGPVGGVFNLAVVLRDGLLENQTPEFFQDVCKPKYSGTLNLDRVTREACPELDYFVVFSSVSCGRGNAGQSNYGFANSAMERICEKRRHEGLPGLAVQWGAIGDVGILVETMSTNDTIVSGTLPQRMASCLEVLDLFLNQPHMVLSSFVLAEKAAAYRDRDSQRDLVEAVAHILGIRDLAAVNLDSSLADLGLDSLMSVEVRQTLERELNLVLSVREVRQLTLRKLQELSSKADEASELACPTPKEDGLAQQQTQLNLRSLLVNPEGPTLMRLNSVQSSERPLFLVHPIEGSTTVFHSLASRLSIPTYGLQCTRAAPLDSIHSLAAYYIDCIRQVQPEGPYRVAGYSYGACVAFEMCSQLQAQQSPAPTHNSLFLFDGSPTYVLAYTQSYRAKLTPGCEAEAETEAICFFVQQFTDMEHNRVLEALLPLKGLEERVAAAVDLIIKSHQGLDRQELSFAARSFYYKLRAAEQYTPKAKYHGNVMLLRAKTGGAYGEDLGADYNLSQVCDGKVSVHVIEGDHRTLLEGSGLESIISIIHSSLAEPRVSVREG
Genome polyprotein, sequence (P29990 2492-3391 limits assumed): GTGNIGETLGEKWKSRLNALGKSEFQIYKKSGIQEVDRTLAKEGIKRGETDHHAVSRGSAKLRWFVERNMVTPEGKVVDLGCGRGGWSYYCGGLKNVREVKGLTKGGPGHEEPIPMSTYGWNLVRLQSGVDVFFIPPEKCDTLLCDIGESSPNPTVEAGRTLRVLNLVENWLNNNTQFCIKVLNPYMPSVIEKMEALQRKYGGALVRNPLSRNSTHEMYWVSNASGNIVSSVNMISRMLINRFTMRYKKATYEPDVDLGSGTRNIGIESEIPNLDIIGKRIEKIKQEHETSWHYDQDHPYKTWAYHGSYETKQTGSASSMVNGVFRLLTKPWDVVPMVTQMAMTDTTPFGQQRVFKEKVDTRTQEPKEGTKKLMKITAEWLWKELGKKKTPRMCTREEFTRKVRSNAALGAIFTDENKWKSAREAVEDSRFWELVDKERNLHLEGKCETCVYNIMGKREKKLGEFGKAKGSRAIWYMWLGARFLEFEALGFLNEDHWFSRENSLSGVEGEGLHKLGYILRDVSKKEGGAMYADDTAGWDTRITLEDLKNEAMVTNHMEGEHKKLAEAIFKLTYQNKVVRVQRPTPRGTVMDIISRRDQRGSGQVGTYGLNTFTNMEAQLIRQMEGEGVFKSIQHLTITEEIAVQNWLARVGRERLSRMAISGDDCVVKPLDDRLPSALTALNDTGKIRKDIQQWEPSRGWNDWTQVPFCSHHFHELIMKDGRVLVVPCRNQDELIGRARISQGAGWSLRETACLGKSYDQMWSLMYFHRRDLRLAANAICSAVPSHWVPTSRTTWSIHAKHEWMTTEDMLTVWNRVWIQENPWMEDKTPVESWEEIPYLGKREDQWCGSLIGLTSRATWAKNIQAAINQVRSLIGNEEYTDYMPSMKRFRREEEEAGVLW
Induced myeloid leukemia cell differentiation protein Mcl-1, sequence (Q07820 whole entry): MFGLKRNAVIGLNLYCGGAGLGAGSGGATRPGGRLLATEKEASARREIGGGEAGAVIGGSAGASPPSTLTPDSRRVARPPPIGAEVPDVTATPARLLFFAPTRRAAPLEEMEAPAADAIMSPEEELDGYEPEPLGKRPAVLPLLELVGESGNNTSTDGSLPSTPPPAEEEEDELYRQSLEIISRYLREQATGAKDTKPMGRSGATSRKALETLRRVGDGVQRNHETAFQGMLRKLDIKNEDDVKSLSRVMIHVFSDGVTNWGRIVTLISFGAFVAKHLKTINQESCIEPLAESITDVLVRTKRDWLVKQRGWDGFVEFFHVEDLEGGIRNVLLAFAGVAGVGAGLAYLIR

Compound: COC(=O)Cn1c(=O)c(C(=O)CCl)c(N)n(Cc2ccccc2)c1=O
- EC50 [1]: 4.86 µM (inconclusive)
- EC50 [2]: 16.3 µM (inconclusive)
- EC50 [3]: 0.797 µM (active)
- EC50 [4]: 7 µM (active)

Compound: O=C(Cn1cnc2cc([N+](=O)[O-])ccc2c1=O)Nc1ccc2c(c1)OCO2
- IC50 [5]: 3.65 µM (active)
- EC50 [6]: > 60 µM (not active)
- IC50 [7]: 4.19 µM (active)
- EC50 [8]: 2.31 µM (active)

Compound: CCc1ccccc1N1C(=O)C(Cl)=C(N2CCOCC2)C1=O
- IC50 [9]: 83.2 µM (active)
- AC50 [10]: 6.57 µM (active)
- EC50 [11]: 4.01 µM (active)

Compound: CC(NC(=O)CN(C)CC(=O)Nc1ccc(Cl)c(C(F)(F)F)c1)c1ccccc1 (stereo unspecified)
- AC50 [12]: 8.39 µM (active)
- AC50 [13]: 15.7 µM (active)
- AC50 [14]: 14.9 µM (active)
- AC50 [15]: 4.06 µM (active)

Compound: COC(=O)Nc1ccc(S(=O)(=O)N(C)C)cc1
- EC50 [16]: > 350 µM (not active)
- EC50 [17]: > 350 µM (not active)

Compound: CC(C)OC(=O)/C(C#N)=C/c1cn(C)c2ccccc12
- IC50 [5]: 11.1 µM (active)
- IC50 [7]: 13.8 µM (active)

Compound: COc1cccc(-n2c(SCC(=O)N3CCOCC3)nc3c4ccccc4nc-3c2O)c1
- EC50 [16]: > 350 µM (not active)
- EC50 [17]: > 350 µM (not active)

Compound: Cc1cccc(NC(=O)C2CCN(S(=O)(=O)c3ccc4c(c3)OCCCO4)CC2)n1
- AC50 [13]: 42.2 µM (active)
- AC50 [14]: 13.1 µM (active)
- AC50 [15]: 66.2 µM (active)

Compound: C=CCOC(=O)/C(=C\c1ccccc1)NC(=O)c1ccc(C)cc1
- IC50 [18]: 2.49 µM (not active)

Compound: CC(C)C(=O)Nc1sc2c(c1C(N)=O)CCN(Cc1ccccc1)C2
- EC50 [1]: 47.8 µM (active)
- EC50 [2]: > 150 µM (not active)
- EC50 [3]: > 150 µM (not active)
- EC50 [4]: > 150 µM (not active)

Compound: COc1ccc(C(=O)Nn2c(SCc3cccc([N+](=O)[O-])c3)nc3ccccc3c2=O)cc1
- IC50 [5]: 14.3 µM (active)
- IC50 [7]: 17.5 µM (active)

Compound: CCN(CC)c1nc(Nc2ccccc2)nc(Oc2ccc(O)nn2)n1
- AC50 [12]: 9.89 µM (active)
- AC50 [13]: 5.99 µM (active)
- AC50 [14]: 9.57 µM (active)
- AC50 [15]: 6.13 µM (active)

Compound: COc1ccc2cc(C(C)C(=O)N3CCC(C(N)=O)CC3)ccc2c1 (stereo unspecified)
- EC50 [16]: > 350 µM (not active)
- EC50 [17]: > 350 µM (not active)

Compound: CC(=O)Nc1ccc2c(c1)CCCC2=O
- EC50 [16]: > 350 µM (not active)
- EC50 [17]: > 350 µM (not active)

Compound: COc1ccc(/C=C(\C#N)c2nc3ccccc3[nH]2)cc1O
- EC50 [16]: > 350 µM (not active)
- EC50 [17]: 8.05 µM (active)

Compound: O=C(Nc1ncc2c(n1)-c1ccccc1OC2)c1cccc([N+](=O)[O-])c1
- IC50 [5]: 13 µM (active)
- IC50 [7]: 9.93 µM (active)

Compound: CC(CCc1ccccc1)NC(=O)c1cccc([N+](=O)[O-])c1 (stereo unspecified)
- EC50 [19]: > 195 µM (not active)
- IC50 [5]: 7.07 µM (active)
- IC50 [7]: 6.29 µM (active)

Compound: O=C(CCN1C(=O)/C(=C/c2ccccc2Cl)SC1=S)Nc1ccccn1
- IC50 [5]: 1.96 µM (active)
- IC50 [7]: 6.7 µM (active)

Compound: O=C(C[C@H]1C[C@H](C(=O)N2CCOCC2)[C@@]2(CCC3CCCC3)c3[nH]c4ccc(Cl)cc4c3CCN2C1=O)NCCc1ccccn1
- IC50 [5]: 1.15 µM (active)
- IC50 [7]: 1.03 µM (active)

Compound: Cc1ccc(C(=O)Nc2ccccc2C(=O)O)cc1S(=O)(=O)Nc1ccc(Br)cc1
- IC50 [9]: 49.8 µM (active)
- AC50 [20]: 0.628 µM (active)

Compound: C=C1CCN([C@@H](CC(C)C)C(=O)Nc2ccc(OC)cc2)S(=O)(=O)c2ccccc21
- AC50 [12]: 2.47 µM (active)
- AC50 [13]: 4.03 µM (active)
- AC50 [14]: 3.63 µM (active)
- AC50 [15]: 2.12 µM (active)
